≈ marks a conversion by molar mass, not a printed value.
What was measured:
Type in all cases: cell-based
[1] = tested on: Actinobacillus pleuropneumoniae serotype 1; assay: Antibacterial MIC, agar-dilution or broth-dilution microtiter test; conditions: Strain A: Actinobacillus pleuropneumoniae serotype 1
Procedure: (§1) The MIC's in Table I and Table II were determined by standard agar-dilution assays or broth-dilution microtiter test.

[2] = tested on: Actinobacillus pleuropneumoniae serotype 7; assay: as above; conditions: Strain B: Actinobacillus pleuropneumoniae serotype 7
Procedure: as §1

[3] = tested on: Escherichia coli 25922 (QC strain); assay: as above; conditions: Strain F: Escherichia coli 25922 (QC strain)
Procedure: as §1

Escherichia coli IN-F6-7 = assay: as above; conditions: INF67; Strain E: Escherichia coli IN-F6-7
Procedure: as §1

[4] = tested on: Klebsiella pneumoniae 3699; assay: as above; conditions: Strain K: Klebsiella pneumoniae 3699
Procedure: as §1

[5] = tested on: Klebsiella pneumoniae 3753; assay: as above; conditions: Strain J: Klebsiella pneumoniae 3753
Procedure: as §1

Pasteurella 8217 = assay: as above; conditions: Strain C: Pasteurella 8217
Procedure: as §1

Pasteurella 8229 = assay: as above; conditions: Strain D: Pasteurella 8229
Procedure: as §1

[6] = tested on: Staphylococcus aureus 29213 (QC strain); assay: as above; conditions: Strain H: Staphylococcus aureus 29213 (QC strain)
Procedure: as §1

[7] = tested on: Staphylococcus aureus 5-1; assay: as above; conditions: 51; Strain G: Staphylococcus aureus 5-1
Procedure: as §1

[8] = tested on: Streptococcus pneumoniae 2349; assay: as above; conditions: Strain L: Streptococcus pneumoniae 2349
Procedure: as §1

[9] = tested on: Streptococcus pneumoniae 49619 (QC strain); assay: as above; conditions: Strain M: Streptococcus pneumoniae 49619 (QC strain)
Procedure: as §1

salmonella LD4-8 = assay: as above; conditions: LD48; Strain I: salmonella LD4-8
Procedure: as §1

M. gallisepticum BG44T = assay: Mycoplasma susceptibility testing (MIC); conditions: Mycoplasmoides gallisepticum
Procedure: as §1

M. gallisepticum S6 = assay: Mycoplasma susceptibility testing (MIC); conditions: Mycoplasmoides gallisepticum
Procedure: as §1

M. hyorinis BTS-7 = assay: Mycoplasma susceptibility testing (MIC)
Procedure: as §1

| MIC (M. gallisepticum BG44T) [µg/mL] | MIC (M. gallisepticum S6) [µg/mL] | MIC (M. hyorinis BTS-7) [µg/mL] | SMILES | MIC [1] [µg/mL] | MIC [2] [µg/mL] | MIC [3] [µg/mL] | MIC (Escherichia coli IN-F6-7) [µg/mL] | MIC [4] [µg/mL] | MIC [5] [µg/mL] | MIC (Pasteurella 8217) [µg/mL] | MIC (Pasteurella 8229) [µg/mL] | MIC [6] [µg/mL] | MIC [7] [µg/mL] | MIC [8] [µg/mL] | MIC [9] [µg/mL] | MIC (salmonella LD4-8) [µg/mL] |
| --- | --- | --- | --- | --- | --- | --- | --- | --- | --- | --- | --- | --- | --- | --- | --- | --- |
|  |  |  | CC[C@H]1OC(=O)C[C@@H](O)[C@H](C)[C@@H](O[C@@H]2O[C@H](C)[C@@H](O)[C@H](N(C)C)[C@H]2O)[C@@H](CCN2CCCCC2)C[C@@H](C)C(=O)/C=C/C(C)=C/[C@@H]1CN1CCCC1 [Compound 4d, (4R,5S,6S,7R,9R,11E,13E,15R,16R)-6-(((2R,3R,4S,5S,6R)-4-(dimethylamino)-3,5-dihydroxy-6-methyltetrahydro-2H-pyran-2-yl)oxy)-16-ethyl-4-hydroxy-5,9,13-trimethyl-7-(2-(piperidin-1-yl)ethyl)-15-(pyrrolidin-1-ylmethyl)oxacyclohexadeca-11,13-diene-2,10-dione] | > 256 | > 256 | > 256 | > 256 | > 256 | > 256 | 256 (≈ 356 µM) | 128 (≈ 178 µM) | 256 (≈ 356 µM) | > 256 | 64 (≈ 88.9 µM) | > 256 | > 256 |
|  |  |  | CC[C@H]1OC(=O)C[C@@H](O)[C@H](C)[C@@H](O[C@@H]2O[C@H](C)[C@@H](O)[C@H](N(C)C)[C@H]2O)[C@@H](CCN2CCCCC2)C[C@@H](C)C(=O)/C=C/C(C)=C/[C@@H]1CNCc1ccccc1 [Compound 4e, (4R,5S,6S,7R,9R,11E,13E,15R,16R)-15-((benzylamino)methyl)-6-(((2R,3R,4S,5S,6R)-4-(dimethylamino)-3,5-dihydroxy-6-methyltetrahydro-2H-pyran-2-yl)oxy)-16-ethyl-4-hydroxy-5,9,13-trimethyl-7-(2-(piperidin-1-yl)ethyl)oxacyclohexadeca-11,13-diene-2,10-dione] | 256 (≈ 339 µM) | 256 (≈ 339 µM) | 256 (≈ 339 µM) | 256 (≈ 339 µM) | > 256 | > 256 | 32 (≈ 42.3 µM) | 16 (≈ 21.2 µM) | 64 (≈ 84.7 µM) | 256 (≈ 339 µM) | 64 (≈ 84.7 µM) | 256 (≈ 339 µM) | > 256 |
|  |  |  | CC[C@H]1OC(=O)C[C@@H](O)[C@H](C)[C@@H](O[C@@H]2O[C@H](C)[C@@H](O)[C@H](N(C)C)[C@H]2O)[C@@H](CCN2CCCCC2)C[C@@H](C)C(=O)/C=C/C(C)=C/[C@@H]1CN(CCO)CCO [Compound 4g, (4R,5S,6S,7R,9R,11E,13E,15R,16R)-15-((bis(2-hydroxyethyl)amino)methyl)-6-(((2R,3R,4S,5S,6R)-4-(dimethylamino)-3,5-dihydroxy-6-methyltetrahydro-2H-pyran-2-yl)oxy)-16-ethyl-4-hydroxy-5,9,13-trimethyl-7-(2-(piperidin-1-yl)ethyl)oxacyclohexadeca-11,13-diene-2,10-dione] | 256 (≈ 340 µM) | 256 (≈ 340 µM) | 256 (≈ 340 µM) | 256 (≈ 340 µM) | > 256 | > 256 | < 0.12 | 32 (≈ 42.4 µM) | 128 (≈ 170 µM) | > 256 | 32 (≈ 42.4 µM) | > 256 | 128 (≈ 170 µM) |
|  |  |  | CC[C@H]1OC(=O)C[C@@H](O)[C@H](C)[C@@H](O[C@@H]2O[C@H](C)[C@@H](O)[C@H](N(C)C)[C@H]2O)[C@@H](CCN2CCCCC2)C[C@@H](C)C(=O)/C=C/C(C)=C/[C@@H]1CNC1CCCCC1 [Compound 4h, (4R,5S,6S,7R,9R,11E,13E,15R,16R)-15-((cyclohexylamino)methyl)-6-(((2R,3R,4S,5S,6R)-4-(dimethylamino)-3,5-dihydroxy-6-methyltetrahydro-2H-pyran-2-yl)oxy)-16-ethyl-4-hydroxy-5,9,13-trimethyl-7-(2-(piperidin-1-yl)ethyl)oxacyclohexadeca-11,13-diene-2,10-dione] | 64 (≈ 85.6 µM) | 64 (≈ 85.6 µM) | 16 (≈ 21.4 µM) | 16 (≈ 21.4 µM) | > 256 | 128 (≈ 171 µM) | 16 (≈ 21.4 µM) | 2 (≈ 2.67 µM) | 64 (≈ 85.6 µM) | 256 (≈ 342 µM) | 2 (≈ 2.67 µM) | 32 (≈ 42.8 µM) | 32 (≈ 42.8 µM) |
| < 0.12 | < 0.12 | 15.6 (≈ 19.4 µM) | CC[C@H]1OC(=O)C[C@@H](O)[C@H](C)[C@@H](O[C@@H]2O[C@H](C)[C@@H](O)[C@H](N(C)C)[C@H]2O)[C@@H](CCN2Cc3ccccc3C2)C[C@@H](C)C(=O)/C=C/C(C)=C/[C@@H]1CN(C)Cc1ccccc1 [Compound 12a, (4R,5S,6S,7R,9R,11E,13E,15R,16R)-15-((benzyl(methyl)amino)methyl)-6-(((2R,3R,4S,5S,6R)-4-(dimethylamino)-3,5-dihydroxy-6-methyltetrahydro-2H-pyran-2-yl)oxy)-16-ethyl-4-hydroxy-7-(2-(isoindolin-2-yl)ethyl)-5,9,13-trimethyloxacyclohexadeca-11,13-diene-2,10-dione] |  |  |  |  |  |  |  |  |  |  |  |  |  |
| < 0.12 | < 0.12 | 3.91 (≈ 5.09 µM) | CC[C@H]1OC(=O)C[C@@H](O)[C@H](C)[C@@H](O[C@@H]2O[C@H](C)[C@@H](O)[C@H](N(C)C)[C@H]2O)[C@@H](CCN2Cc3ccccc3C2)C[C@@H](C)C(=O)/C=C/C(C)=C/[C@@H]1CN1CCCCC1 [Compound 12b, (4R,5S,6S,7R,9R,11E,13E,15R,16R)-6-(((2R,3R,4S,5S,6R)-4-(dimethylamino)-3,5-dihydroxy-6-methyltetrahydro-2H-pyran-2-yl)oxy)-16-ethyl-4-hydroxy-7-(2-(isoindolin-2-yl)ethyl)-5,9,13-trimethyl-15-(piperidin-1-ylmethyl)oxacyclohexadeca-11,13-diene-2,10-dione] |  |  |  |  |  |  |  |  |  |  |  |  |  |
| < 0.12 | < 0.12 | 7.82 (≈ 10.3 µM) | CC[C@H]1OC(=O)C[C@@H](O)[C@H](C)[C@@H](O[C@@H]2O[C@H](C)[C@@H](O)[C@H](N(C)C)[C@H]2O)[C@@H](CCN2Cc3ccccc3C2)C[C@@H](C)C(=O)/C=C/C(C)=C/[C@@H]1CN(CC)CC [Compound 12c, (4R,5S,6S,7R,9R,11E,13E,15R,16R)-15-((diethylamino)methyl)-6-(((2R,3R,4S,5S,6R)-4-(dimethylamino)-3,5-dihydroxy-6-methyltetrahydro-2H-pyran-2-yl)oxy)-16-ethyl-4-hydroxy-7-(2-(isoindolin-2-yl)ethyl)-5,9,13-trimethyloxacyclohexadeca-11,13-diene-2,10-dione] |  |  |  |  |  |  |  |  |  |  |  |  |  |
| < 0.12 | < 0.12 | 3.91 (≈ 4.91 µM) | CC[C@H]1OC(=O)C[C@@H](O)[C@H](C)[C@@H](O[C@@H]2O[C@H](C)[C@@H](O)[C@H](N(C)C)[C@H]2O)[C@@H](CCN2Cc3ccccc3C2)C[C@@H](C)C(=O)/C=C/C(C)=C/[C@@H]1CN1CC(C)CC(C)C1 (stereo partly drawn) [Compound 12d, (4R,5S,6S,7R,9R,11E,13E,15R,16R)-6-(((2R,3R,4S,5S,6R)-4-(dimethylamino)-3,5-dihydroxy-6-methyltetrahydro-2H-pyran-2-yl)oxy)-15-((3,5-dimethylpiperidin-1-yl)methyl)-16-ethyl-4-hydroxy-7-(2-(isoindolin-2-yl)ethyl)-5,9,13-trimethyloxacyclohexadeca-11,13-diene-2,10-dione] |  |  |  |  |  |  |  |  |  |  |  |  |  |

| SMILES | MIC (M. gallisepticum BG44T) [µg/mL] | MIC (M. gallisepticum S6) [µg/mL] | MIC (M. hyorinis BTS-7) [µg/mL] | MIC [1] [µg/mL] | MIC [2] [µg/mL] | MIC [3] [µg/mL] | MIC (Escherichia coli IN-F6-7) [µg/mL] | MIC [4] [µg/mL] | MIC [5] [µg/mL] | MIC (Pasteurella 8217) [µg/mL] | MIC (Pasteurella 8229) [µg/mL] | MIC [6] [µg/mL] | MIC [7] [µg/mL] | MIC [8] [µg/mL] | MIC [9] [µg/mL] | MIC (salmonella LD4-8) [µg/mL] |
| --- | --- | --- | --- | --- | --- | --- | --- | --- | --- | --- | --- | --- | --- | --- | --- | --- |
| CC[C@H]1OC(=O)C[C@@H](O)[C@H](C)[C@@H](O[C@@H]2O[C@H](C)[C@@H](O)[C@H](N(C)C)[C@H]2O)[C@@H](CCN2CCCCC2)C[C@@H](C)C(=O)/C=C/C(C)=C/[C@@H]1CN(CC)CC [Compound 4a, (4R,5S,6S,7R,9R,11E,13E,15R,16R)-15-((diethylamino)methyl)-6-(((2R,3R,4S,5S,6R)-4-(dimethylamino)-3,5-dihydroxy-6-methyltetrahydro-2H-pyran-2-yl)oxy)-16-ethyl-4-hydroxy-5,9,13-trimethyl-7-(2-(piperidin-1-yl)ethyl)oxacyclohexadeca-11,13-diene-2,10-dione] | < 0.12 | < 0.12 | 62.5 (≈ 86.6 µM) | 32 (≈ 44.3 µM) | 32 (≈ 44.3 µM) | 4 (≈ 5.54 µM) | 8 (≈ 11.1 µM) | > 256 | 32 (≈ 44.3 µM) | 0.5 (≈ 0.693 µM) | 0.5 (≈ 0.693 µM) | 4 (≈ 5.54 µM) | > 256 | 0.5 (≈ 0.693 µM) | 8 (≈ 11.1 µM) | 4 (≈ 5.54 µM) |
| CCCN(CCC)C[C@H]1/C=C(C)/C=C/C(=O)[C@H](C)C[C@H](CCN2CCCCC2)[C@H](O[C@@H]2O[C@H](C)[C@@H](O)[C@H](N(C)C)[C@H]2O)[C@@H](C)[C@H](O)CC(=O)O[C@@H]1CC [Compound 4b, (4R,5S,6S,7R,9R,11E,13E,15R,16R)-6-(((2R,3R,4S,5S,6R)-4-(dimethylamino)-3,5-dihydroxy-6-methyltetrahydro-2H-pyran-2-yl)oxy)-15-((dipropylamino)methyl)-16-ethyl-4-hydroxy-5,9,13-trimethyl-7-(2-(piperidin-1-yl)ethyl)oxacyclohexadeca-11,13-diene-2,10-dione] | < 0.12 | 0.49 (≈ 0.653 µM) | 15.6 (≈ 20.8 µM) | 32 (≈ 42.7 µM) | 32 (≈ 42.7 µM) | 4 (≈ 5.33 µM) | 8 (≈ 10.7 µM) | > 256 | 32 (≈ 42.7 µM) | 1 (≈ 1.33 µM) | 0.25 (≈ 0.333 µM) | 16 (≈ 21.3 µM) | > 256 | 1 (≈ 1.33 µM) | 16 (≈ 21.3 µM) | 8 (≈ 10.7 µM) |

— patent US10287275B2, “16-member triamilide derivatives and uses thereof” (VICTOR PHARMA CO., LTD. ZHENJIANG, priority 2015, dated 2019)
